Laboratory results: article PMC3933693, “Novel Inhibitors of Mitochondrial sn-Glycerol 3-phosphate Dehydrogenase” (PLoS ONE, 2014)
Where two headings read alike, the source gives them in different places.

What was measured:
[1] = target: T1, purified rabbit muscle cGPDH (Oryctolagus cuniculus, UniProt P08507); assay: cGPDH enzymatic activity (NADH oxidation in the presence of DHAP); format: biochemical; details: Fig. 5
T1 construct: Activity of purified rabbit muscle cGPDH was measured as described by the manufacturer; purchased; host or cells: rabbit muscle
T1 sequence (P08507 1-349): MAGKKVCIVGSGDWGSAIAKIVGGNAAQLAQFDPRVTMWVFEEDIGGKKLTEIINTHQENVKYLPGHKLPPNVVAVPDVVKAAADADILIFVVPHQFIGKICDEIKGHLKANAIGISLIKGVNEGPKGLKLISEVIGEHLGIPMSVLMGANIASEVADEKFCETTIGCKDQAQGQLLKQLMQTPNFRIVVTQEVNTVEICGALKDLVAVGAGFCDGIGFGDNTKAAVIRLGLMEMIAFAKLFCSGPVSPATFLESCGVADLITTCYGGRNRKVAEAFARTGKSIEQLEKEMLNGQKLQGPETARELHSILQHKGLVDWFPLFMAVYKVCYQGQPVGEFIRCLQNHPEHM
Method: The effects of small-molecule inhibitors on cGPDH and mGPDH enzymatic activity were tested according to established procedures. Activity of purified rabbit muscle cGPDH was measured as described by the manufacturer as the rate of oxidation of NADH in the presence of DHAP on the Varian fluorimeter (λex = 365 nm, λem = 450 nm). Activity of cGPDH in frozen-thawed synaptosomes was measured at 37°C in a BMG Labtech PHERAstar Plus microplate reader as the linear rate of change in NADH absorbance (λ = 340 nm) specific to the addition of 2.5 mM DHAP and insensitive to 4 µM rotenone. Rates were converted to nmol NADH using an extinction coefficient of 6.22 mM^−1 ⋅ cm^−1 and a calculated pathlength of 0.6 cm.

[2] = target: T2, mGPDH (Rattus norvegicus, UniProt P35571); assay: Superoxide/H2O2 production by mGPDH in isolated skeletal muscle mitochondria (Amplex UltraRed); format: biochemical
T2 construct: Activity of mGPDH in frozen-thawed skeletal muscle mitochondria was measured; from tissue; host or cells: skeletal muscle mitochondria
T2 sequence (P35571 43-727): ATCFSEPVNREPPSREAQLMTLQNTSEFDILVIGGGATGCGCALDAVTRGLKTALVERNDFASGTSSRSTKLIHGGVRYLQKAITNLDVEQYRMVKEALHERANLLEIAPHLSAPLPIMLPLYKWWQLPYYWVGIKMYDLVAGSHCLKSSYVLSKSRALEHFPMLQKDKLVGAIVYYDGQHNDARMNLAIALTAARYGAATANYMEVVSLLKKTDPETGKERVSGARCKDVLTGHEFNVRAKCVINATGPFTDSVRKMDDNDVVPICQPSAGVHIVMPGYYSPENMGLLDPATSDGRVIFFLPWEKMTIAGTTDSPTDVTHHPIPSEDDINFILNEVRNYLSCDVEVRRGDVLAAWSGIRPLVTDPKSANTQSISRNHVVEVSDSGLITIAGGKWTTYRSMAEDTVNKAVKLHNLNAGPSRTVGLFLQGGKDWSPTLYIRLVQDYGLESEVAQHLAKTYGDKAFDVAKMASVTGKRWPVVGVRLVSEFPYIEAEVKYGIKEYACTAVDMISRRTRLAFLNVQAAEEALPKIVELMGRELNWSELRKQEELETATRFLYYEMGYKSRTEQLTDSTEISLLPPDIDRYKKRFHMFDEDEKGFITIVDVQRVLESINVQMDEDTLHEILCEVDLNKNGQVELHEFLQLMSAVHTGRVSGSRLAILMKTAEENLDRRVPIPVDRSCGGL

O=C(O)CCC(=O)Nc1ccc(-c2nc3ccccc3[nH]2)cc1 [iGP-1]
effect on the soluble form of GPDH (cGPDH) activity [1]: did not inhibit
IC50 ([2]; Fig. 4 structure/activity microplate assay, 0.08–80 µM, estimated, means of two replicates, read-out: mGPDH H2O2 production IC50): 8 µM
IC50 ([2]; Fig. 9B, read-out: mGPDH H2O2 Production IC50): 13.6 ± 1.3 µM
mGPDH (% change from DMSO) ([2]; primary screen, ∼2.5 µM, average of duplicates, 16.7 mM glycerol phosphate, no added calcium): -21.6%
inhibition at 80 µM ([2]; read-out: mGPDH H2O2 production (% change at 80 μM)): 55%
IC50 ([2]; titration up to 80 µM (Fig. 6B, Fig. 7B), read-out: half-maximal effect on H2O2 production by mGPDH): ~8 µM
